Source: publication PMC9653409, “Generative deep learning enables the discovery of a potent and selective RIPK1 inhibitor” (Nature Communications, 2022)
Several values for one entry are separate records, joined by “and”; a condition that tells them apart may be missing. Equal entries are not always repeated. Where two headings read alike, the source gives them in different places.

Legend:
[1] = tested on: DSS-induced IBD; assay: DSS-induced IBD mouse model: colon length; type: in vivo, C57BL/6 female mice
Description: (§1) DSS (3% w/v) was administered in drinking water ad libitum for 7 d (from day 0 to day 7). DSS solution was replaced three times on day 2, day 4, and day 6. […] Three mice in each group were killed at random on day 7, and distal colon tissues were collected for analysis. The mice weight and survival rate were recorded daily.

[2] = target: T1, RIPK1 (Homo sapiens, UniProt Q13546); assay: RIPK1 kinase assay, ADP-Glo assay; type: biochemical
T1 sequence (Q13546 1-671): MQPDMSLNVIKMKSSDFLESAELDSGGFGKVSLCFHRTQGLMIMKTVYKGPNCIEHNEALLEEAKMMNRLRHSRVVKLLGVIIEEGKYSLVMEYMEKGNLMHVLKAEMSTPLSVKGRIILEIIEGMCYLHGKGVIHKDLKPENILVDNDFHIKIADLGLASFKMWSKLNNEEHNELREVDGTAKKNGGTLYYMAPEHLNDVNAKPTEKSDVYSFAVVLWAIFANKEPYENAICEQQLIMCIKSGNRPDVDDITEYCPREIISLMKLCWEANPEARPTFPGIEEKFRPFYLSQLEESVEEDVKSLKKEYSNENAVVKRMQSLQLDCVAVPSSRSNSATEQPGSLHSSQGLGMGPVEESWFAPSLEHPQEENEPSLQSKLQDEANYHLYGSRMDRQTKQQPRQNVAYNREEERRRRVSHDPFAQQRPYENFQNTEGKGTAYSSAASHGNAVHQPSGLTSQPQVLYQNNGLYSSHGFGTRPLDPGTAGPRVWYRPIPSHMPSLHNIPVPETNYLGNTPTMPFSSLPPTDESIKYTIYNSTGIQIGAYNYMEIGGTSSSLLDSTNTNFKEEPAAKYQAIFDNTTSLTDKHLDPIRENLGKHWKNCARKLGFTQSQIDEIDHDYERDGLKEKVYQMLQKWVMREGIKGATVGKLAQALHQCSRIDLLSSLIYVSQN

[3] = tested on: HT29-vector cells; assay: TSZ-induced necroptosis in HT29-vector cells (CCK8); type: cell-based
Description: Cell necroptosis protection assays were performed in 96-well cell culture plates. Cells were plated in each well and cultured at 37 °C overnight. […] The cell survival rate was determined using a CCK8 cell viability assay kit and CLARIOstar (v5.61). […] All experiments were performed at least two times, and each EC50 value was expressed as mean ± standard deviation (SD).
The lentiCRISPRv2 vector targeting RIPK1 (sgRNA, 5’- […]-3’) was constructed by the Azenta company. HEK 293 T cells were transfected with lentiCRISPRv2 targeting RIPK1 and empty vector using Hieff Trans^TM Liposomal Transfection Reagent (Yeasen), respectively. […] The concentrated viruses were added to HT29 cells along with 8 μg/mL of polybrene (Yeasen) to enhance transfection efficiency. The infection assay was repeated in the next day under the same conditions. Finally, HT29 cells were screened with 3 μg/mL puromycin. Western blot analysis was used to confirm the RIPK1 deletion.

[4] = target: T1, RIPK1; assay: RIPK1 kinase assay, 33P-labeled ATP assay at Eurofins; type: biochemical
Description: In vitro kinase activity assays were conducted through the Kinase Profiling Services provided by Eurofins (Eurofins, France). The protocol for the RIPK1 assay is briefly described as follows (Protocols for other kinases are very similar and can be found in http://www.eurofins.com/pharmadiscovery). RIPK1 kinase was incubated with the test compound in assay buffer containing 8 mM MOPS (pH 7.0), 0.2 mM EDTA, 250 μM […], 10 mM magnesium acetate, and 10 μM [γ-33P]-ATP for 15 min at room temperature. The reaction was initiated by the addition of the Mg/ATP mixture. After incubation for 40 min at room temperature, and the reaction was stopped by the addition of 3% phosphoric acid. A 10 μL portion of the reaction mixture was then spotted onto a P30 filter mat and washed four times for 4 min in 0.425% phosphoric acid and once in methanol prior to drying and scintillation counting.

[5] = tested on: DSS-induced IBD; assay: DSS-induced IBD mouse model: body weight; type: in vivo, C57BL/6 female mice; conditions: for Body Weight (%): Figure 9a
Description: as §1

[6] = tested on: IL-1β; assay: DSS-induced IBD mouse model: IL-1β in cultured colon supernatant (ELISA); type: in vivo, C57BL/6 female mice
Description: as §1
In the TNFα-induced SIRS model, at 6 h after TNFα injection, four mice in each group were killed at random, and the serums were collected, the serum concentrations of IL-1β and IL-6 were measured using ELISA kits (Neobioscience Technology) according to manufacturer’s instructions. […] The supernatant was collected by sequential centrifugation at 500 × g for 10 min and 3000 × g for 10 min. The concentrations of cytokines TNFα, IL-6, and IL-1β were measured using ELISA kits (Neobioscience Technology).

Compound: CC(C)C(=O)Nc1nc2cc(-c3ccc4c(c3)c(C(=O)NC(C)c3ccccc3)cn4C)ccn2n1 (stereo not shown) [RI-962]
- DSS-induced shortening of colon length ([1]; 40 mg/kg i.p. once a day, day 7): markedly reduced
- Colon Length ([1]; Figure 9b, individual replicates 1-3): 52.0 mm and 54.0 mm (2×)
- inhibition at 0.000152416 µM ([2]; 0.152416 nM): -7.04%
- inhibition at 0.000457247 µM ([2]; 0.457247 nM): -2.09%
- inhibition at 0.00137174 µM ([2]; 1.371742 nM): 5.59%
- inhibition at 0.00411523 µM ([2]; 4.115226 nM): 34.1%
- inhibition at 0.0123457 µM ([2]; 12.345679 nM): 80%
- inhibition at 0.037037 µM ([2]; 37.037037 nM): 94%
- inhibition at 0.111111 µM ([2]; 111.111111 nM): 95.3%
- inhibition at 0.333333 µM ([2]; 333.333333 nM): 96.3%
- inhibition at 1 µM ([2]; 1000.000000 nM): 98.1%
- inhibition at 3 µM ([2]; 3000.000000 nM): 99.3%
- IC50 ([2]; ADP-Glo assay): 5.9 nM
- viability at 0.000169 µM ([3]; 0.000169 μM + TSZ, read-out: Cell Viability (%) Average): 34.3%
- viability at 0.000508 µM ([3]; 0.000508 μM + TSZ, read-out: Cell Viability (%) Average): 38.1%
- viability at 0.001524 µM ([3]; 0.001524 μM + TSZ, read-out: Cell Viability (%) Average): 41.2%
- viability at 0.004572 µM ([3]; 0.004572 μM + TSZ, read-out: Cell Viability (%) Average): 64.8%
- viability at 0.013717 µM ([3]; 0.013717 μM + TSZ, read-out: Cell Viability (%) Average): 108%
- viability at 0.041152 µM ([3]; 0.041152 μM + TSZ, read-out: Cell Viability (%) Average): 109%
- viability at 0.123457 µM ([3]; 0.123457 μM + TSZ, read-out: Cell Viability (%) Average): 110%
- viability at 0.37037 µM ([3]; 0.370370 μM + TSZ, read-out: Cell Viability (%) Average): 113%
- viability at 1.11111 µM ([3]; 1.111111 μM + TSZ, read-out: Cell Viability (%) Average): 102%
- EC50 ([3]; HT29-vector, TSZ): 4.2 ± 0.2 nM
- activity at 0.001 µM ([4]; 1 nM): 82.5%
- activity at 0.003 µM ([4]; 3 nM): 95%
- activity at 0.01 µM ([4]; 10 nM): 80.5%
- activity at 0.03 µM ([4]; 30 nM): 60.5%
- activity at 0.1 µM ([4]; 100 nM): 17.5%
- activity at 0.3 µM ([4]; 300 nM): -2%
- activity at 1 µM ([4]; 1000 nM): 11.5%
- activity at 3 µM ([4]; 3000 nM): 3.5%
- activity at 10 µM ([4]; 10 µM, read-out: Activity (%), RIPK1(h)): 0%
- activity at 10 µM ([4]; 10000 nM, read-out: Activity (%) Average): -3.5%
- IC50 ([4]; 33P-labeled ATP assay, read-out: IC50): 35 nM
- loss of body weight ([5]; 40 mg/kg i.p. once a day): strongly ameliorated this loss of body weight
- Body Weight (%) ([5]; day 0): 100%
- Body Weight (%) ([5]; day 1): 97.11%
- Body Weight (%) ([5]; day 2): 98.41%
- Body Weight (%) ([5]; day 3): 102.3%
- Body Weight (%) ([5]; day 4): 103.1%
- Body Weight (%) ([5]; day 5): 104.6%
- Body Weight (%) ([5]; day 6): 103.5%
- Body Weight (%) ([5]; day 7): 103.5%
- Body Weight (%) ([5]; day 8): 99.79%
- Body Weight (%) ([5]; day 9): 98.12%
- Body Weight (%) ([5]; day 10): 98.15%
- Body Weight (%) ([5]; day 11): 100.8%
- Body Weight (%) ([5]; day 12): 100.7%
- Body Weight (%) ([5]; day 13): 102.5%
- Body Weight (%) ([5]; day 14): 104.7%
- content of IL-1β in cultured colonic tissue supernatants ([6]; 40 mg/kg i.p., day 7): substantially reduced
- IL-1β ([6]; Figure 9h, individual replicates 1-3): 46.88 pg/mL and 42.98 pg/mL and 47.29 pg/mL
